ChEMBL document CHEMBL1132082, “Nonsteroidal androgen receptor agonists based on 4-(trifluoromethyl)-2H-pyrano[3,2-g]quinolin-2-one” (Bioorg Med Chem Lett, 1999)

Assays:
Progesterone receptor = target: T1, Progesterone receptor (Homo sapiens, UniProt P06401); experiment: (§1) In vitro antagonistic activity against human progesterone receptor (hPR); assay type: functional
T1 sequence (P06401 whole entry): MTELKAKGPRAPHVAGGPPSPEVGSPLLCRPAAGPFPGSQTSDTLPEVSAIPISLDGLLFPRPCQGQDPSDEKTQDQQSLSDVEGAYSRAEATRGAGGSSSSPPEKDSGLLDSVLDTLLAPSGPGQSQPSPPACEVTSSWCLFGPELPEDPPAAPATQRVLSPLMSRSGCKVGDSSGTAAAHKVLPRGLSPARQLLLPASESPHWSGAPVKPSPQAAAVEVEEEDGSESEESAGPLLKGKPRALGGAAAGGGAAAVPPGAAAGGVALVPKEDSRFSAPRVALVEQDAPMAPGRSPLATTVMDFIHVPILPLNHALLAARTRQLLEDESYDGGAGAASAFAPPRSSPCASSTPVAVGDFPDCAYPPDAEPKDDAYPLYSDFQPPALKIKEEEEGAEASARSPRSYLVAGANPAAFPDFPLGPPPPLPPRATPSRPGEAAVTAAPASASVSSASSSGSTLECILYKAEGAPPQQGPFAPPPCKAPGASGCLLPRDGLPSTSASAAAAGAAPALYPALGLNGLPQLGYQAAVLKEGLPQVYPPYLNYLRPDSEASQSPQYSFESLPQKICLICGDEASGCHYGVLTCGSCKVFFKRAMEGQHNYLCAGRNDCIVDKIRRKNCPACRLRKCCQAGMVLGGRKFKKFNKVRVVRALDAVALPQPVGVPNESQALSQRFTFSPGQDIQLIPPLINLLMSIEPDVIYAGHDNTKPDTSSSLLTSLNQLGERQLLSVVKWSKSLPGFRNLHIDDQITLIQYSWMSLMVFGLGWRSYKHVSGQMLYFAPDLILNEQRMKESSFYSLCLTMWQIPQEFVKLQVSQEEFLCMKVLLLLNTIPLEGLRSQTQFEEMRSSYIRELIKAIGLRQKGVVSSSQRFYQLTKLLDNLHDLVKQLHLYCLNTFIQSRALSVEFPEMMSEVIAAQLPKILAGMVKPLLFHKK

[1] = target: T2, Progesterone receptor (Homo sapiens) (UniProt P06401); experiment: as §1; assay type: functional
T2 sequence (whole entry): T1 sequence (P06401 whole entry)

Estrogen receptor = Estrogen receptor (Homo sapiens, UniProt Q92731+P03372); experiment: In vitro antagonistic activity against human estrogen receptor (hER); assay type: functional
Androgen receptor = target: T3, Androgen receptor (Homo sapiens, UniProt P10275)
T3 sequence (P10275 whole entry): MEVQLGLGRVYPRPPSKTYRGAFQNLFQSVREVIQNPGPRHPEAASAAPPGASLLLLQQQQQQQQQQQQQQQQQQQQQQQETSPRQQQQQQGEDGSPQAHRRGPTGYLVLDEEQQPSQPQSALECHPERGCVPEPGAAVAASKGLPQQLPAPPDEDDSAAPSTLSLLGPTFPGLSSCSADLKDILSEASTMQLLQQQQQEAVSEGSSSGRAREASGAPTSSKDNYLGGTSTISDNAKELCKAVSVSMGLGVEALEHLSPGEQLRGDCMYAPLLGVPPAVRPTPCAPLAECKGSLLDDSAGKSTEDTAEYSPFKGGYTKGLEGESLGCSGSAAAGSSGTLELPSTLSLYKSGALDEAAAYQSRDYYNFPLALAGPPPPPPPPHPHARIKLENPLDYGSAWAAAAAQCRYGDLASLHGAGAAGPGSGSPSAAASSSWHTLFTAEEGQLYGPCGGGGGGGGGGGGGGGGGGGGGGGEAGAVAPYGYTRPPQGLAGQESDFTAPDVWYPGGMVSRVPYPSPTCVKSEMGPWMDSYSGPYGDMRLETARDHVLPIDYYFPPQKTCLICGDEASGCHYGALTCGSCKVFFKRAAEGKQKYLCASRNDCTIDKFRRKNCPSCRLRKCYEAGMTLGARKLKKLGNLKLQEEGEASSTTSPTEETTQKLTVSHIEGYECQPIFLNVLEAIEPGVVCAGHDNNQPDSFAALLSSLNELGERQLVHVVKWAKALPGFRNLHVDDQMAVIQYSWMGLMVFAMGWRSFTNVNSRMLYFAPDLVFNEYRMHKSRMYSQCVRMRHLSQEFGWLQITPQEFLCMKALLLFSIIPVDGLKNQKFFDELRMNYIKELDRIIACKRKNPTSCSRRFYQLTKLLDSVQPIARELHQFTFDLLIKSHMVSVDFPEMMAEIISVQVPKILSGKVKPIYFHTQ

| Structure (SMILES) | IC50 (Progesterone receptor) | Efficacy [1] | Efficacy (Estrogen receptor) | IC50 (Androgen receptor) |
| --- | --- | --- | --- | --- |
| CCCC1CCNc2cc3oc(=O)cc(C(F)(F)F)c3cc21 (stereo not given) | 106 nM | 89% | < 20% | > 10 nM |
| CCC1CCNc2cc3oc(=O)cc(C(F)(F)F)c3cc21 (stereo not given) | 200 nM | 91% | < 20% | > 10 nM |
| CC1CCNc2cc3oc(=O)cc(C(F)(F)F)c3cc21 (stereo not given) | 280 nM | 83% | < 20% | > 10 nM |
| O=c1cc(C(F)(F)F)c2cc3c(cc2o1)NCCC3C(F)(F)F (stereo not given) | 270 nM | 68% | < 20% | > 10 nM |
| CCC1Nc2cc3oc(=O)cc(C(F)(F)F)c3cc2CC1C (stereo not given) | 440 nM | 88% | < 20% | > 10 nM |
